Read-outs that look alike come from different tables or passages of the source.
How the values were obtained:
[1] = long-distance runners, 20 miles, intake of 2.8 g, placebo-controlled; cited from earlier work
[2] = cited from earlier work
intestinal bacteria = conditions: by intestinal bacteria; cited from earlier work
[3] = 12 hours of storage in a refrigerator; clear, yellow liquid
[4] = person, run over marathon distance (26.2 miles), daily supplement of 10 g
[5] = person, daily supplement of 5 g

C[N+](C)(C)CCO.[Cl-] [choline chloride]
performance increase [1]: approximately 3%

C[N+](C)(C)CCO [choline, hydroxyethyltrimethylammonium]
lowest-observed-adverse-effect level (LOAEL) ([2]; in vivo): 7.5 g/day
upper tolerable daily dose ([2]; taking into consideration an element of uncertainty): 3.5 g
oral intake converted into di- or trimethylamine (intestinal bacteria): Approximately 60%

choline pyruvate [Example 1]
Appearance (Day 4): clear
HPLC content Parapyruvate (Day 4): 2.7%
HPLC content Pyruvate (Day 4): 35.3%
IC content Choline (Day 4): 50.6%
Appearance (Day 21): clear
HPLC content Parapyruvate (Day 21): 2.6%
HPLC content Pyruvate (Day 21): 35.8%
IC content Choline (Day 21): 50.6%
Appearance (Day 42): clear
HPLC content Parapyruvate (Day 42): 2.6%
HPLC content Pyruvate (Day 42): 35.5%
IC content Choline (Day 42): 50.7%
Appearance (Day 103): clear
HPLC content Parapyruvate (Day 103): 2.8%
HPLC content Pyruvate (Day 103): 35.9%
IC content Choline (Day 103): 50.6%
stability during storage [3]: remained stable
performance increase [4]: 4%
fat-free body mass [5]: increase
weight reduction [5]: approximately 3%
